Earlier results in PMC9773016, “Strebluses E–H, four new stilbene-like derivatives from the stems of Streblus ilicifolius” (RSC Advances, 2022).

Target: Mushroom tyrosinase (Agaricus bisporus, UniProt C7FF04)
Set-up: method as in PMID 34306141, PMID 33939585
Settings: value from previous study of the same authors; read-out: tyrosinase inhibitory effect IC50

Chain of Mushroom tyrosinase (C7FF04 1-392): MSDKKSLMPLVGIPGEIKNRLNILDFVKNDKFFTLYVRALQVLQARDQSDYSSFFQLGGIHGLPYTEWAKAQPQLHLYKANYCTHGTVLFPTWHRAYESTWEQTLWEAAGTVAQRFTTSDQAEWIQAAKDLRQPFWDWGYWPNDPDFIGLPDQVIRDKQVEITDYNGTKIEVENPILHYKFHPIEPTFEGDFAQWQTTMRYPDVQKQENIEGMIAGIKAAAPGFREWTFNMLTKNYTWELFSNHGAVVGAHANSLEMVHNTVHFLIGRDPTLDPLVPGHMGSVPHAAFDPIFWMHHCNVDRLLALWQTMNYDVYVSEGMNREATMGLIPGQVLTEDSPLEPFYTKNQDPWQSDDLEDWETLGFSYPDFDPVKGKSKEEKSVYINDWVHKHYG

CC(C)=CC[C@@]12OC(C)(C)O[C@@H]1CC(/C=C/c1ccc(O)cc1O)=CC2=O [Streblus C]
IC50: 10 nM
